Reference: patent US10697960B2, “CXCR4 and ROBO1 expression as markers for autoimmune diabetes” (BOARD OF SUPERVISORS OR LOUISANA STATE UNIVERSITY AND …, priority 2012, dated 2020)
“Also recorded” adds a separate entry of the source.

Assays:
[1] = test system: NOD/ShiLtJ T cells on MS1 endothelial cells; test: Anti-ROBO1 T cell detachment assay on MS1 endothelial monolayers under step-wise shear stress; format: cell-based, mouse; details: TNFα stimulation of MS1 cells versus unstimulated control
Experimental: T cell detachment assays were performed as otherwise described in C. Sharp et al. (2008). T cells were injected into the tubing via an inlet port upstream of the flow chamber at a concentration of 2×10^6 cells/ml and allowed to firmly adhere under static conditions for 15 minutes. Next, shear stress was initiated and increased in a step-wise manner every 30 seconds as follows: 35, 56, 91, 224, 504, and 980 mPa. The assay was recorded by video, which was analyzed to determine the percentage of cells detached at the end of each shear stress interval. For the anti-ROBO1 detachment assay, MS1 cells were treated for […] at 37° C. with TNFα as described above and then with 100 ng/ml recombinant mouse SDF-1α (460-SD; R&D Systems). T cells were pre-treated for 30 minutes at 37° C. with 20 μg/ml ROBO1 blocking antibody (GT15144; Neuromics, Edina, Minn., USA) or isotype control (GT15900; Neuromics).
Having established that T cell levels of ROBO1 differ between C57BL/6J and NOD/ShiLtJ mice, we investigated whether SDF-1-mediated firm adhesion defects were dependent on ROBO1-SLIT2 binding. We used a parallel plate flow chamber detachment assay. NOD/ShiLtJ T cells were first allowed to statically adhere to islet endothelial cell monolayers. […]

[2] = test system: NOD/ShiLtJ T cells on TNFα-activated MS1 islet endothelial cells; test: Parallel plate flow chamber T cell adhesion assay with SDF-1 peptide mimetic; format: cell-based, mouse; details: MS1 cells treated 4 hours with 10 ng/ml TNFα; 150 mPa
Experimental: Hydrodynamic flow chamber assays were performed as otherwise described in C. Sharp et al. (2008). Briefly, T cells isolated as described above were labeled with CellTracker Green (C7025; Life Technologies, Carlsbad, Calif., USA), rinsed, and resuspended at a concentration of 2×10^6 cells/ml in phenol red-free Hanks' balanced salt solution (HBSS). The cells were placed in a beaker that had been previously coated with Sigmacote (Sigma-Aldrich), kept at 37° C., and stirred at 60 rev/min. A flow chamber insert and gasket with a 0.5 cm flow width and 250 μm thickness (GlycoTech, Gaithersburg, Md., USA) were used with 35 mm cell culture dishes containing confluent MS1 cell cultures to form a parallel plate flow chamber. To activate endothelial cells, MS1 cells were treated for 4 to 6 hours at 37° C. with 10 ng/ml recombinant mouse TNFα (T7539; Sigma).
For the SDF-1 peptide mimetic T cell adhesion assay, MS1 cells were rinsed with HBSS and treated for 10 minutes with an SDF-1 peptide mimetic (AYWKENKEQ with two branched lysines as a linker between the two motifs, SEQ ID NO 1) at […]. This peptide was a linearized version of a cyclized SDF-1 analogue reported by Tudan et al., “C-terminal cyclization of an SDF-1 small peptide analogue dramatically increases receptor affinity and activation of CXCR4 receptor,” J. Med. Chem., vol. 45, pp. 2024-31 (2002). T cells were pumped through polypropylene tubing by a syringe pump (KD Scientific, Holliston, Mass., USA) across the endothelial monolayer at a physiological shear stress of 150 mPa. Real-time digital video images (minimum 28 frames/second) were captured with an epifluorescence microscope (TE-2000 Eclipse; Nikon, Tokyo, Japan) and digital camera (Model C4742-95-12ER: Hamamatsu Photonics, Hamamatsu, Japan). Simple PCI software (Hamamatsu Photonics) was used to analyze the video and to measure T cell rolling velocities. Cells were considered firmly adherent if they remained stationary for 10 seconds within the field of view. A minimum of three videos per plate and four plates per condition were used for analysis.
We examined whether a linear SDF-1 peptide mimetic containing the receptor-binding site could replicate the effect of full length SDF-1 in blocking adhesion of T cells to activated endothelium. MS1 cells were treated for 4 hours with 10 ng/ml TNFα, followed by treatment for 10 minutes with an SDF-1 peptide mimetic at 200, 1000, or 5000 ng/ml. Cells were then tested in a parallel plate flow chamber cell adhesion assay. Fluorescently labeled T cells obtained from NOD/ShiLtJ mice flowed over the endothelial monolayers at 150 mPa. […] Leucocyte adhesion videos were analyzed to calculate T cell rolling velocity and to determine whether the decrease in firm adhesion was due to a decreased number of rolling cells.

## TNFα
[1]
  T cell attachment / resistance to shear-mediated detachment: increased attachment; also recorded: increased the resistance of T cells to shear-mediated detachment
[2]
  TNFα-induced adhesion versus untreated endothelium: five times greater
